Where “and” joins values, the source holds several entries; their conditions need not be identical. Equal values may be shown once.
Experiments:
[1] = test system: FGF2-induced angiogenesis in chick chorioalloantoic membranes; test: Neovascularization in the Chick Chorioalloantoic Membrane (CAM), FGF2-stimulated CAM Model; format: in vivo; conditions: for Branch Points ± SEM: CAM; for inhibition at 10 µM: Gallus gallus, FGF2 + analog, 10 uM (Table 4), read-out: % inhibition ± SEM Branch point in CAM; for % inhibition ± SEM: CAM branch points (Table 3)
Experimental: In vivo neovascularization was examined by the method previously described by Auerbach et al. (Auerbach et al., J. Dev. Biol., 41:391-394 (1974), which is hereby incorporated by reference in its entirety). Ten-day old embryos were purchased from Spafas, Inc. (Preston, Conn.) and were incubated at 37° C. with 55% relative humidity. In the dark with the help of a candling lamp, a small hole was punctured in the shell concealing the air sac with a hypodermic needle. A second hole was punctured, in the shell on the broadside of the egg directly over an avascular portion of the embryonic membrane, as observed during candling. A false air sac was created beneath the second hole by the application of negative pressure to the first hole, which caused the chorioallantoic membrane (CAM) to separate from the shell. A window, approximately 1.0 cm^2, was cut in the shell over the dropped CAM with the use of a small crafts grinding wheel (Dremel, Division of Emerson Electric Company Racine, Wis.), which allowed direct, access to the underlying CAM. Filter disks of #1 filter paper (Whatman International, United Kingdom) were soaked in 3 mg/mL cortisone acetate (Sigma, St. Louis, Mo.) in a solution of 95% ethanol and water and subsequently air dried under sterile conditions. FGF2 (Life Technologies, Gaithersburg, Md.) was used to grow vessels on the CAMs of 10 day old chick embryos. Sterile filter disks adsorbed with FGF2 dissolved in PBS at 1 μg/mL were placed on growing CAMs. Sterile filter disks adsorbed with FGF2 or sulfur- or selenium-containing compounds, and polymeric forms were dissolved in PBS at 1 μg/mL were placed on growing CAM. At 24 h, test compounds or control vehicle was added directly to CAM topically.
CAM tissue directly beneath FGF2-saturated filter disk was resected from embryos treated 48 hours prior with test compound or control. Tissues were washed three times with PBS. Sections were placed in a 35-mm petri dish (Nalge Nunc, Rochester, N.Y.) and examined under a SV6 stereomicroscope (Karl Zeiss, Thornwood, N.Y.) at 50× magnification. Digital images of CAM sections adjacent to filters were collected using a 3-CCD color video camera system (Toshiba America, New York, N.Y.) and analyzed using Image-Pro Plus software (Media Cybernetics, Silver Spring, Md.).
Statistical Analysis: Statistical analysis was performed by 1-way ANOVA comparing experimental with control samples.

[2] = test system: endothelial cells; test: Inhibition of Endothelial Cell Tube Formation (Matrigel, FGF2-stimulated); format: cell-based, Human; conditions: for inhibition at 3 µM: Homo sapiens, Endothelial cell, read-out: Man % Inhibition +/− SD
Experimental: Differentiation by endothelial cells was examined using a method developed by Grant et al. (Grant et al., In Vitro Cell Dev. Biol., 27A:327-336 (1991), which is hereby incorporated by reference in its entirety). Matrigel® matrix, phenol-red free (commercially available from Becton Dickinson, Bedford, Mass.) was thawed overnight at 4° C. Using cold pipette tips, 3.0 mg/well of Matrigel® matrix was placed M a cold twenty-four-multi-well plate (Falcon). Matrigel® matrix was allowed to polymerize during incubation at 37° C. for 30 minutes.

[3] = FGF2 + analog, all compounds tested at 3 μM, n = 3

Compound: O=S1(=O)CC=CC1 [Example 4]
- Branch Points ± SEM ([1]; FGF2 (1.0 ug/ml) + analog): 131.57 ± 11.55
- inhibition at 10 µM [1]: 62.6 ± 9.21%
- Length(mm) ± SEM [2, 3]: 25.25 ± 0.66 mm
- inhibition at 3 µM [2, 3]: 62.5 ± 2.24%

Compound: CSCS(C)(=O)=O [Example 6]
- Branch Points ± SEM ([1]; FGF2 (1.0 ug/ml) + analog): 158.0 ± 7.08
- inhibition at 10 µM [1]: 25.6 ± 8.1%
- Length(mm) ± SEM [2, 3]: 22.91 ± 1.70 mm
- inhibition at 3 µM [2, 3]: 70.3 ± 5.71%

Compound: CS(=O)(=O)CS(C)(=O)=O [Example 12]
- Branch Points ± SEM ([1]; FGF2 (1.0 ug/ml) + analog): 144.83 ± 9.19
- inhibition at 10 µM [1]: 40.6 ± 10.5%
- Length(mm) ± SEM [2, 3]: 31.47 ± 1.5 mm
- inhibition at 3 µM [2, 3]: 41.5 ± 4.93%

Compound: C[Se](=O)(=O)c1ccccc1 [Example 16]
- inhibition at 10 µM [1]: 23.8 ± 4.9%
- Length(mm) ± SEM [2, 3]: 28.78 ± 0.88 mm
- inhibition at 3 µM [2, 3]: 46.5 ± 3.2%

Compound: FGF2: growth factor used to grow vessels on the CAMs; pro-angiogenic stimulus [reference compound]
- Branch Points ± SEM ([1]; FGF2 alone, 1.0 ug/ml): 180.33 ± 8.58 and 193 ± 11 and 173 ± 7.5
- Length(mm) ± SEM ([2]; FGF2 alone (stimulated control)): 43.82 ± 3.2 mm

Compound: CCS(=O)(=O)CC [Example 19]
- Branch Points ± SEM ([1]; FGF2 (1.0 ug/ml) + analog): 131 ± 17
- inhibition at 10 µM [1]: 53 ± 15%
- Length(mm) ± SEM [2, 3]: 28.46 ± 25.7 mm
- inhibition at 3 µM [2, 3]: 47.6 ± 9.2%

Compound: C[Se](=O)c1ccccc1 (stereo not drawn) [Example 18]
- Branch Points ± SEM ([1]; FGF2 (1.0 ug/ml) + analog): 165 ± 5.7
- % inhibition ± SEM ([1]; FGF2 (1.0 ug/ml) + analog): 23.8 ± 4.9%
- inhibition at 10 µM [1]: 39%
- Length(mm) ± SEM [2, 3]: 28.22 ± 0.92 mm
- inhibition at 3 µM [2, 3]: 48.5 ± 3.3%

Compound: O=S1(=O)CCCC1 [Example 2]
- Branch Points ± SEM ([1]; FGF2 (1.0 ug/ml) + analog): 141.0 ± 10.69
- inhibition at 10 µM [1]: 55 ± 8.53%
- Length(mm) ± SEM [2, 3]: 24.03 ± 0.85 mm
- inhibition at 3 µM [2, 3]: 66.5 ± 2.87%

Compound: O=S1(=O)C=CC1 [Example 1]
- Branch Points ± SEM ([1]; FGF2 (1.0 ug/ml) + analog): 149 ± 8.9
- inhibition at 10 µM [1]: 48.9 ± 7%
- Length(mm) ± SEM [2, 3]: 20.64 ± 0.68 mm
- inhibition at 3 µM [2, 3]: 77.9 ± 2.28%

Compound: O=S1(=O)CC2(C1)CS(=O)(=O)C2 [Example 13]
- Branch Points ± SEM ([1]; FGF2 (1.0 ug/ml) + analog): 164 ± 5
- % inhibition ± SEM ([1]; FGF2 (1.0 ug/ml) + analog): 24 ± 4.3%
- inhibition at 10 µM [1]: 24.7 ± 4.3%
- Length(mm) ± SEM [2, 3]: 34.61 ± 0.24 mm
- inhibition at 3 µM [2, 3]: 31 ± 0.8%

Compound: O=S(=O)(c1ccccc1)c1ccccc1 [Example 15]
- Branch Points ± SEM ([1]; FGF2 (1.0 ug/ml) + analog): 163 ± 15
- inhibition at 10 µM [1]: 25 ± 13%
- Length(mm) ± SEM [2, 3]: 23.43 ± 2.5 mm
- inhibition at 3 µM [2, 3]: 65.6 ± 8.9%

Compound: O=[Se](=O)(c1ccccc1)c1ccccc1 [Example 14]
- Branch Points ± SEM ([1]; FGF2 (1.0 ug/ml) + analog): 143.5 ± 4.7
- inhibition at 10 µM [1]: 41.4 ± 4.5%
- Length(mm) ± SEM [2, 3]: 31.91 ± 1.8 mm
- inhibition at 3 µM [2, 3]: 40.1 ± 6.12%

Compound: CC[Se](=O)(=O)CC [Example 17]
- Branch Points ± SEM ([1]; FGF2 (1.0 ug/ml) + analog): 146 ± 8.5
- % inhibition ± SEM ([1]; FGF2 (1.0 ug/ml) + analog): 40 ± 7%
- inhibition at 10 µM [1]: 39.9 ± 7.3%
- Length(mm) ± SEM [2, 3]: 30.98 ± 2.43 mm
- inhibition at 3 µM [2, 3]: 38.6 ± 8.7%

Compound: O=C(O)C[Se](=O)(=O)CC(=O)O [Example 20]
- Branch Points ± SEM ([1]; FGF2 (1.0 ug/ml) + analog): 148.67 ± 11.02
- inhibition at 10 µM [1]: 36.3 ± 12.6%
- Length(mm) ± SEM [2, 3]: 25.11 ± 3.1 mm
- inhibition at 3 µM [2, 3]: 62.9 ± 10.5%

Compound: CS(=O)(=O)c1ccccc1 [Example 5]
- Branch Points ± SEM ([1]; FGF2 (1.0 ug/ml) + analog): 140 ± 5.2
- % inhibition ± SEM ([1]; FGF2 (1.0 ug/ml) + analog): 37 ± 5.9%
- inhibition at 10 µM [1]: 37%
- Length(mm) ± SEM [2, 3]: 28.81 ± 1.0 mm
- inhibition at 3 µM [2, 3]: 50.5 ± 3.48%

Compound: CCCCS(=O)(=O)CCCC [Example 3]
- Branch Points ± SEM ([1]; FGF2 (1.0 ug/ml) + analog): 150.88 ± 14.31
- inhibition at 10 µM [1]: 47.2 ± 11.4%
- Length(mm) ± SEM [2, 3]: 25.41 ± 1.1 mm
- inhibition at 3 µM [2, 3]: 61.9 ± 3.57%

Compound: CS(=O)(=O)C(Cl)(Cl)Cl [Example 9]
- Branch Points ± SEM ([1]; FGF2 (1.0 ug/ml) + analog): 135.83 ± 8.17
- inhibition at 10 µM [1]: 51 ± 9.36%
- Length(mm) ± SEM [2, 3]: 21.95 ± 3.1 mm
- inhibition at 3 µM [2, 3]: 73.5 ± 10.5%
